Where two headings read alike, the source gives them in different places.
Assays:
Experiment in all cases: Susceptibility testing of VVC clinical isolates at pH 7 and 4 (CLSI M27-A3)
[1] = test system: C. glabrata vaginal isolates; assay type: cell-based, Candida glabrata; conditions: for Number of isolates at MIC 0.03 μg/mL / Number of isolates at MIC 0.06 μg/mL / Number of isolates at MIC 0.25 μg/mL / Number of isolates at MIC 0.5 μg/mL / Number of isolates at MIC 1 μg/mL / Number of isolates at MIC 2 μg/mL / Number of isolates at MIC 0.125 μg/mL / Number of isolates at MIC 4 μg/mL / Number of isolates at MIC ≥4 μg/mL: 21 VVC isolates; for MIC90: Nakaseomyces glabratus, 21 isolates, read-out: MIC90
[2] = test system: C. tropicalis vaginal isolates; assay type: cell-based; conditions: Candida tropicalis, 13 isolates, read-out: MIC90
[3] = test system: C. albicans vaginal isolates; assay type: cell-based, Candida albicans; conditions: for MIC / MIC90: Candida albicans; for MIC: read-out: MIC; for MIC90: 60 isolates, read-out: MIC90
[4] = test system: C. parapsilosis vaginal isolates; assay type: cell-based, Candida parapsilosis; conditions: 14 isolates, read-out: MIC90

CCC(C)n1ncn(-c2ccc(N3CCN(c4ccc(OCC5COC(Cn6cncn6)(c6ccc(Cl)cc6Cl)O5)cc4)CC3)cc2)c1=O (centres unmarked) [ITR, itraconazole]
0.06 µg/mL: MIC90 ([3]; pH 7, 24 h)
0.5 µg/mL: MIC90 ([2]; pH 4, 48 h) | MIC90 ([2]; pH 7, 48 h) | MIC ([3]; 48 h, pH 4, fluconazole-resistant isolate 3, pH 4, 48 h) | MIC ([3]; 48 h, pH 4, fluconazole-resistant isolate 7, pH 4, 48 h) | MIC ([3]; 48 h, pH 7, fluconazole-resistant isolate 3, pH 7, 48 h) | MIC ([3]; 48 h, pH 7, fluconazole-resistant isolate 7, pH 7, 48 h)
23: Number of isolates at MIC 0.03 μg/mL ([3]; 60 VVC isolates, 48 h, pH 4)
34: Number of isolates at MIC […] ([3]; 60 VVC isolates, 48 h, pH 7)
21: Number of isolates at MIC 0.008 μg/mL ([3]; 60 VVC isolates, 24 h, pH 7)
5: Number of isolates at MIC 0.25 μg/mL ([1]; 48 h, pH 7)
0.125 µg/mL: MIC90 ([2]; pH 4, 24 h) | MIC90 ([2]; pH 7, 24 h) | MIC ([3]; 48 h, pH 4, fluconazole-resistant isolate 1, pH 4, 48 h) | MIC ([3]; 48 h, pH 4, fluconazole-resistant isolate 4, pH 4, 48 h) | MIC ([3]; 48 h, pH 7, fluconazole-resistant isolate 1, pH 7, 48 h) | MIC ([3]; 48 h, pH 7, fluconazole-resistant isolate 10, pH 7, 48 h) | MIC90 ([3]; pH 4, 24 h) | MIC90 ([3]; pH 7, 48 h) | MIC90 ([4]; pH 4, 48 h) | MIC90 ([4]; pH 7, 48 h)
4: Number of isolates at MIC 0.03 μg/mL ([1]; 24 h, pH 7) | Number of isolates at MIC 1 μg/mL ([1]; 48 h, pH 4) | Number of isolates at MIC ≥4 μg/mL ([3]; 60 VVC isolates, 48 h, pH 4)
10: Number of isolates at MIC 0.06 μg/mL ([3]; 60 VVC isolates, 48 h, pH 4) | Number of isolates at MIC […] ([3]; 60 VVC isolates, 48 h, pH 4)
> 4 µg/mL: MIC90 ([1]; pH 4, 48 h) | MIC90 ([1]; pH 7, 48 h) | MIC ([3]; 48 h, pH 4, fluconazole-resistant isolate 5, pH 4, 48 h) | MIC ([3]; 48 h, pH 4, fluconazole-resistant isolate 6, pH 4, 48 h) | MIC ([3]; 48 h, pH 4, fluconazole-resistant isolate 8, pH 4, 48 h) | MIC ([3]; 48 h, pH 4, fluconazole-resistant isolate 9, pH 4, 48 h) | MIC ([3]; 48 h, pH 7, fluconazole-resistant isolate 9, pH 7, 48 h)
1 µg/mL: MIC90 ([1]; pH 4, 24 h) | MIC90 ([1]; pH 7, 24 h)
1: Number of isolates at MIC 0.03 μg/mL ([1]; 24 h, pH 4) | Number of isolates at MIC 2 μg/mL ([1]; 24 h, pH 4) | Number of isolates at MIC 4 μg/mL ([1]; 24 h, pH 7) | Number of isolates at MIC 0.03 μg/mL ([1]; 48 h, pH 4) | Number of isolates at MIC 0.06 μg/mL ([1]; 48 h, pH 4) | Number of isolates at MIC 0.125 μg/mL ([1]; 48 h, pH 4) | Number of isolates at MIC 0.03 μg/mL ([1]; 48 h, pH 7) | Number of isolates at MIC 0.06 μg/mL ([1]; 48 h, pH 7) | Number of isolates at MIC 0.125 μg/mL ([1]; 48 h, pH 7) | Number of isolates at MIC 2 μg/mL ([3]; 60 VVC isolates, 24 h, pH 4) | Number of isolates at MIC 2 μg/mL ([3]; 60 VVC isolates, 24 h, pH 7) | Number of isolates at MIC 1 μg/mL ([3]; 60 VVC isolates, 48 h, pH 4) | Number of isolates at MIC 2 μg/mL ([3]; 60 VVC isolates, 48 h, pH 7) | Number of isolates at MIC ≥4 μg/mL ([3]; 60 VVC isolates, 48 h, pH 7)
2 µg/mL: MIC ([3]; 48 h, pH 7, fluconazole-resistant isolate 8, pH 7, 48 h)
9: Number of isolates at MIC 0.5 μg/mL ([1]; 24 h, pH 4) | Number of isolates at MIC 0.03 μg/mL ([3]; 60 VVC isolates, 24 h, pH 7)
8: Number of isolates at MIC ≥4 μg/mL ([1]; 48 h, pH 4) | Number of isolates at MIC 0.5 μg/mL ([1]; 48 h, pH 7) | Number of isolates at MIC 0.008 μg/mL ([3]; 60 VVC isolates, 24 h, pH 4) | Number of isolates at MIC 0.06 μg/mL ([3]; 60 VVC isolates, 24 h, pH 4) | Number of isolates at MIC 0.03 μg/mL ([3]; 60 VVC isolates, 48 h, pH 7)
13: Number of isolates at MIC 0.03 μg/mL ([3]; 60 VVC isolates, 24 h, pH 4)
3: Number of isolates at MIC 0.25 μg/mL ([1]; 24 h, pH 7) | Number of isolates at MIC 0.5 μg/mL ([1]; 24 h, pH 7) | Number of isolates at MIC ≥4 μg/mL ([1]; 48 h, pH 7) | Number of isolates at MIC 0.06 μg/mL ([3]; 60 VVC isolates, 24 h, pH 7) | Number of isolates at MIC 0.25 μg/mL ([3]; 60 VVC isolates, 48 h, pH 4) | Number of isolates at MIC 0.5 μg/mL ([3]; 60 VVC isolates, 48 h, pH 4)
24: Number of isolates at MIC […] ([3]; 60 VVC isolates, 24 h, pH 4)
0.016 µg/mL: MIC ([3]; 48 h, pH 7, fluconazole-resistant isolate 6, pH 7, 48 h) | MIC90 ([4]; pH 4, 24 h)
20: Number of isolates at MIC […] ([3]; 60 VVC isolates, 24 h, pH 7)
0.03 µg/mL: MIC ([3]; 48 h, pH 7, fluconazole-resistant isolate 4, pH 7, 48 h) | MIC90 ([4]; pH 7, 24 h)
5 µg/mL: MIC90 ([3]; pH 4, 48 h)
2: Number of isolates at MIC 0.06 μg/mL ([1]; 24 h, pH 4) | Number of isolates at MIC 0.25 μg/mL ([1]; 24 h, pH 4) | Number of isolates at MIC 0.06 μg/mL ([1]; 24 h, pH 7) | Number of isolates at MIC 1 μg/mL ([1]; 24 h, pH 7) | Number of isolates at MIC 0.5 μg/mL ([1]; 48 h, pH 4) | Number of isolates at MIC 2 μg/mL ([1]; 48 h, pH 4) | Number of isolates at MIC 4 μg/mL ([1]; 48 h, pH 4) | Number of isolates at MIC 2 μg/mL ([1]; 48 h, pH 7) | Number of isolates at MIC 0.125 μg/mL ([3]; 60 VVC isolates, 24 h, pH 4) | Number of isolates at MIC 0.25 μg/mL ([3]; 60 VVC isolates, 24 h, pH 4) | Number of isolates at MIC 0.5 μg/mL ([3]; 60 VVC isolates, 24 h, pH 4) | Number of isolates at MIC 0.25 μg/mL ([3]; 60 VVC isolates, 24 h, pH 7) | Number of isolates at MIC 0.5 μg/mL ([3]; 60 VVC isolates, 24 h, pH 7) | Number of isolates at MIC 0.25 μg/mL ([3]; 60 VVC isolates, 48 h, pH 7) | Number of isolates at MIC 0.5 μg/mL ([3]; 60 VVC isolates, 48 h, pH 7)
6: Number of isolates at MIC 1 μg/mL ([1]; 24 h, pH 4) | Number of isolates at MIC 0.125 μg/mL ([1]; 24 h, pH 7) | Number of isolates at MIC 0.125 μg/mL ([3]; 60 VVC isolates, 48 h, pH 4) | Number of isolates at MIC 0.008 μg/mL ([3]; 60 VVC isolates, 48 h, pH 7) | Number of isolates at MIC 0.125 μg/mL ([3]; 60 VVC isolates, 48 h, pH 7)
0.25 µg/mL: MIC ([3]; 48 h, pH 4, fluconazole-resistant isolate 2, pH 4, 48 h) | MIC ([3]; 48 h, pH 4, fluconazole-resistant isolate 10, pH 4, 48 h) | MIC ([3]; 48 h, pH 7, fluconazole-resistant isolate 2, pH 7, 48 h) | MIC ([3]; 48 h, pH 7, fluconazole-resistant isolate 5, pH 7, 48 h)

— US20180256673A1, “METHODS FOR TREATING FUNGAL INFECTIONS” (priority 2015, published 2018)
